The values below come from patent US5811408A, “2'-deoxy-2'-(substituted or unsubstituted)methylidene-4'-thionucleosides” (Yamasa Corporation, priority 1994, dated 1998).

Converted amounts (≈) assume the structure as drawn.

Experiment [1] relates to NUGC-4. The experiment is described as follows: Proliferation Inhibitory Activity on Cultured Cells (in vitro test, MTT), NUGC-4. The class given is cell-based. The note with it: Homo sapiens; NUGC-4, Stomach adenocarcinoma; 72 hours, 37° C. The procedure:
(§1) Proliferation Inhibitory Activity on Cultured Cells (in vitro test)
(§2) Cells in the logarithmic growth phase were suspended in a medium for inoculation, and seeded into each well of a 96-well plate so that the number of the cells would be 3×10^3 /180 microliters/well. To each well was added 20 microliters of a sample solution or water, and incubation was carried out at 37° C. for 72 hours. After incubation, 25 microliters of an MTT solution (2 mg/ml, prepared in PBS) was added, and incubation was further conducted at 37° C. for 4 hours. The medium was removed, and the MTT-formazane formed was dissolved in 200 microliters of dimethyl sulfoxide. The absorbance at 540 nm of this solution was measured by a microplate reader. The proliferation inhibitory rate obtained by calculation was plotted on a graph paper against the concentration of the sample. Then, the 50% inhibitory concentration (IC50) was determined for evaluation of the antitumor effect.
(§3) The results of the test carried out by using the compound of the present invention (the beta-anomer of 2'-deoxy-2'-methylidene-4'-thiocytidine synthesized in Example 1) are shown in Table 1.

For experiment [2], the system named is KKLS. The experiment can be described thus: Proliferation Inhibitory Activity on Cultured Cells (in vitro test, MTT), KKLS. The class given is cell-based. The note with it: Stomach adenocarcinoma, 72 hours, 37° C. The procedure:
as §1, §2, §3

Experiment [3] deals with Colo320DM. The experiment can be described thus: Proliferation Inhibitory Activity on Cultured Cells (in vitro test, MTT), Colo320DM. The class given is cell-based. The note with it: Homo sapiens, COLO 320DM, Colon adenocarcinoma, 72 hours, 37° C. The procedure:
as §1, §2, §3

The subject of experiment [4] is HCT-15. The experiment can be described thus: Proliferation Inhibitory Activity on Cultured Cells (in vitro test, MTT), HCT-15. The class given is cell-based. To be noted: Homo sapiens; HCT-15, Colon adenocarcinoma; 72 hours, 37° C. How it is done:
as §1, §2, §3

Experiment [5] deals with Mia-PaCa-2. The experiment can be described thus: Proliferation Inhibitory Activity on Cultured Cells (in vitro test, MTT), Mia-PaCa-2. The format is cell-based. The note with it: Homo sapiens; Mia-PaCa-2, Pancreas carcinoma; 72 hours, 37° C. How it is done:
as §1, §2, §3

Experiment [6] concerns PC-10. The experiment can be described thus: Proliferation Inhibitory Activity on Cultured Cells (in vitro test, MTT), PC-10. The format is cell-based. The note with it: Homo sapiens, PC10; PC-10, Lung squamous cell carcinoma; 72 hours, 37° C. The procedure: as §1, §2, §3
The test system of experiment [7] is Lu-65. The experiment is described as follows: Proliferation Inhibitory Activity on Cultured Cells (in vitro test, MTT), Lu-65. The class given is cell-based. To be noted: Homo sapiens; Lu-65, Large cell lung carcinoma; 72 hours, 37° C. The procedure: as §1, §2, §3
The subject of experiment [8] is QG-90. The experiment is described as follows: Proliferation Inhibitory Activity on Cultured Cells (in vitro test, MTT), QG-90. The format is cell-based. The note with it: Homo sapiens; QG-90, Small cell lung carcinoma; 72 hours, 37° C. The procedure:
as §1, §2, §3

For experiment [9], the system named is QG-96. The experiment is described as follows: Proliferation Inhibitory Activity on Cultured Cells (in vitro test, MTT), QG-96. To be noted: QG-96, Small cell lung carcinoma; 72 hours, 37° C. The format is cell-based. How it is done: as §1, §2, §3
Experiment [10] relates to MCF-7. The experiment can be described thus: Proliferation Inhibitory Activity on Cultured Cells (in vitro test, MTT), MCF-7. The note with it: Homo sapiens, MCF7; MCF-7, Breast carcinoma; 72 hours, 37° C. The format is cell-based. The procedure:
as §1, §2, §3

Experiment [11] relates to KK-47. The experiment is described as follows: Proliferation Inhibitory Activity on Cultured Cells (in vitro test, MTT), KK-47. The class given is cell-based. To be noted: Homo sapiens; KK-47, Bladder carcinoma; 72 hours, 37° C. The procedure:
as §1, §2, §3

Experiment [12] has as its system HOS. The experiment is described as follows: Proliferation Inhibitory Activity on Cultured Cells (in vitro test, MTT), HOS. The format is cell-based. The note with it: Homo sapiens, Osteosarcoma, 72 hours, 37° C. How it is done: as §1, §2, §3
Experiment [13] deals with MG-63. The experiment can be described thus: Proliferation Inhibitory Activity on Cultured Cells (in vitro test, MTT), MG-63. The class given is cell-based. To be noted: Homo sapiens; MG-63, Osteosarcoma; 72 hours, 37° C. The procedure:
as §1, §2, §3

The test system of experiment [14] is HEp-2. The experiment is described as follows: Proliferation Inhibitory Activity on Cultured Cells (in vitro test, MTT), HEp-2. The class given is cell-based. The note with it: Homo sapiens; HEp-2, Esophagus carcinoma; 72 hours, 37° C. How it is done:
as §1, §2, §3

Experiment [15] relates to A375. The experiment is described as follows: Proliferation Inhibitory Activity on Cultured Cells (in vitro test, MTT), A375. The format is cell-based. To be noted: Homo sapiens, A-375; A375, Melanoma; 72 hours, 37° C. The procedure: as §1, §2, §3
Experiment [16] deals with SK-Mel-28. The experiment is described as follows: Proliferation Inhibitory Activity on Cultured Cells (in vitro test, MTT), SK-Mel-28. The format is cell-based. The note with it: Homo sapiens; SK-Mel-28, Melanoma; 72 hours, 37° C. The procedure:
as §1, §2, §3

Experiment [17] concerns HT1080. The experiment is described as follows: Proliferation Inhibitory Activity on Cultured Cells (in vitro test, MTT), HT1080. The note with it: Homo sapiens, HT-1080; HT1080, Soft tissue sarcoma; 72 hours, 37° C. The format is cell-based. The procedure:
as §1, §2, §3

In experiment [18] the test system is murine P388 leukemia cells. The experiment is described as follows: Antitumor Activity in mice bearing P388 leukemia (in vivo test). To be noted: BDF1 mice, 10 mg/kg intraperitoneally once a day, Day 1, 2, 5, 6. The procedure: Antitumor Activity in mice bearing P388 leukemia (in vivo test)
DBA/2 mice were intraperitoneally inoculated with murine P388 leukemia cells. On day 0, ascites was collected from the DBA/2 mice, and P388 leukemia cells were intraperitoneally implanted into BDF1 mice so that the number of the cells would be 1×10^6 /mouse. A sample was dissolved in dimethyl sulfoxide, and this sample solution was intraperitoneally administered to the mice once a day. The antitumor effect was evaluated by comparing the survival time of the administered group with that of the control group.
The results of the test carried out by using the compound of the present invention (the beta-anomer of 2'-deoxy-2'-methylidene-4'-thiocytidine synthesized in Example 1) are shown in Table 2.

The subject of experiment [19] is murine S-180 cells. The experiment is described as follows: Antitumor Activity in Mice Implanted with S-180 Cells (in vivo test). To be noted: ICR mice, caudal vein, days 1-5 and 7-10; for Weight of Tumor (mean value ± SE): tumor removed on day 35, control 8.70 ± 1.31; for Inhibitory Rate: tumor weight on day 35. An excerpt: Antitumor Activity in Mice Implanted with S-180 Cells (in vivo test)
ICR mice were intraperitoneally inoculated with murine S-180 cells. On day 0, ascites was collected from the ICR mice, and Sarcoma 180 cells were subcutaneously implanted into ICR mice so that the number of the cells would be 5×10^6 /mouse. A sample was suspended in Macrogol-400/Tween 80 (6:0.8) so that the concentration thereof would be 10 times the concentration at the time of the administration thereof. Thereafter, the suspension was diluted to 1/10 with physiological saline, and injected once a day into the caudal vein of the mice on days 1-5, and on days 7-10. The antitumor effect (inhibitory rate) was evaluated by measuring the weight of the tumor removed on day 35.
The results of the test carried out by using the compound of the present invention (the beta-anomer of 2'-deoxy-2'-methylidene-4'-thiocytidine synthesized in Example 1) are shown in Table 3.

Regarding `C=C1[C@H](n2ccc(N)nc2=O)S[C@H](CO)[C@H]1O` [Compound of the Invention, 2'-deoxy-2'-methylidene-4'-thiocytidine], the IC50 in experiment [1] was 0.6 µg/mL (≈ 2.35 µM); in [2], 0.77 µg/mL (≈ 3.02 µM); in [3] it was 0.06 µg/mL (≈ 0.235 µM); in [4] it was 0.65 µg/mL (≈ 2.55 µM); in experiment [5] it was 2.4 µg/mL (≈ 9.4 µM); in experiment [6] it was 1.5 µg/mL (≈ 5.88 µM). The IC50 is 0.075 µg/mL (≈ 0.294 µM) in experiment [7]; 0.32 µg/mL (≈ 1.25 µM) in experiment [8]; 0.5 µg/mL (≈ 1.96 µM) in experiment [9]; 0.3 µg/mL (≈ 1.18 µM) in experiment [10]; 0.38 µg/mL (≈ 1.49 µM) in experiment [11]; 0.45 µg/mL (≈ 1.76 µM) in experiment [12]. The IC50 is 0.53 µg/mL (≈ 2.08 µM) in experiment [13]; 4.1 µg/mL (≈ 16.1 µM) in experiment [14]; 0.25 µg/mL (≈ 0.979 µM) in [15]; 0.092 µg/mL (≈ 0.36 µM) in experiment [16]; 0.21 µg/mL (≈ 0.823 µM) in experiment [17]. The “MST (Median survival time)” value in experiment [18] (control (DMSO) 9.0 days) was 12.0 days. Further, the T/C in experiment [18] (survival vs control (DMSO) = 100) was 133%. The “Weight of Tumor (mean value ± SE)” value in experiment [19] (20 mg/kg/day) is listed as 6.39 ± 1.07; in experiment [19] (100 mg/kg/day), 0.80 ± 0.24. Also, the figures for the “Inhibitory Rate” value in experiment [19] (20 mg/kg/day) and in experiment [19] (100 mg/kg/day) were 26.6% and 90.8%, respectively.

One may read the IC50 as the point on the concentration scale where inhibition reaches its midpoint. The term T/C denotes the ratio of treated to control.
